Consider three compounds from EP4635500A1, “THERAPEUTIC AGENT FOR BACTERIAL INFECTION” (Sumitomo Pharma Co., Ltd., priority 2022, dated 2024).

Type in all cases: cell-based
One assay deals with Fusobacterium spp. Put plainly: MIC, agar dilution, anaerobic bacteria (Example 9, Tables 20, 25).
A further assay has as its system Citrobacter freundii. The assay is described as follows: MIC and MBC, broth microdilution (Example 4, Table 3). To be noted: Citrobacter freundii CDC-157 (NDM-1).
Assay [1] relates to Serine-carbapenemase producing strains (N = 19). Put plainly: MIC50/MIC90 for carbapenemase-producing isolates (Example 5, Table 6). Set-up: unit not given here. Conditions: Serine-carbapenemase (N = 19): KPC-2 (7), KPC-3 (8), KPC-38 (1), OXA-48 (2), OXA-181 (1).

Converted amounts (≈) assume the structure as drawn.

`Cc1ncc([N+](=O)[O-])n1CCO` [Metronidazole] registered an MIC50 with Fusobacterium spp. (Fusobacterium spp.) not above 0.12 µg/mL. This compound gave an MICrange in the assay with Fusobacterium spp. (Fusobacterium spp.) not above 0.12 to 0.5 µg/mL. Besides, the MIC90 against Fusobacterium spp. (Fusobacterium, Fusobacterium spp.) was found to be 0.25 µg/mL (≈ 1.46 µM). Moreover, the MIC is not above 0.12 µg/mL with Fusobacterium spp. (Fusobacterium, KUB No. 6692 Fusobacterium sp.); 0.25 µg/mL (≈ 1.46 µM) with Fusobacterium spp. (Fusobacterium, KUB No. 6693 Fusobacterium nucleatium); not above 0.12 µg/mL in the assay on Fusobacterium spp. (Fusobacterium, KUB No. 6708 Fusobacterium necrophorun); not above 0.12 µg/mL with Fusobacterium spp. (Fusobacterium, KUB No. 6715 Fusobacterium sp.); not above 0.12 µg/mL in the assay on Fusobacterium spp. (Fusobacterium, KUB No. 6716 Fusobacterium nuncleatum); not above 0.12 µg/mL against Fusobacterium spp. (Fusobacterium, KUB No. 6719 Fusobacterium sp.). The minimal inhibitory concentration (MIC) against Fusobacterium spp. (Fusobacterium, KUB No. 6725 Fusobacterium sp.) was not above 0.12 µg/mL; in the assay with Fusobacterium spp. (KUB No. 2741 Fusobacterium varium ATCC 27725) it was 0.25 µg/mL (≈ 1.46 µM); with Fusobacterium spp. (KUB No. 2742 Fusobacterium nucleatum ATCC 25586) it was not above 0.12 µg/mL; against Fusobacterium spp. (KUB No. 6694 Fusobacterium necrophorum), not above 0.12 µg/mL; against Fusobacterium spp. (KUB No. 6695 Fusobacterium necrophorum), 0.5 µg/mL (≈ 2.92 µM); against Fusobacterium spp. (KUB No. 6696 Fusobacterium necrophorum), not above 0.12 µg/mL. Moreover, the minimal inhibitory concentration (MIC) was not above 0.12 µg/mL in the assay with Fusobacterium spp. (KUB No. 6697 Fusobacterium nucleatum); not above 0.12 µg/mL against Fusobacterium spp. (KUB No. 6698 Fusobacterium nucleatum); not above 0.12 µg/mL in the assay on Fusobacterium spp. (KUB No. 6699 Fusobacterium necrophorum); not above 0.12 µg/mL against Fusobacterium spp. (KUB No. 6700 Fusobacterium nucleatum); 0.25 µg/mL (≈ 1.46 µM) against Fusobacterium spp. (KUB No. 6702 Fusobacterium necrophorum); 0.25 µg/mL (≈ 1.46 µM) in the assay on Fusobacterium spp. (KUB No. 6710 Fusobacterium necrophorum). In addition, the MIC in the assay on Fusobacterium spp. (KUB No. 6720 Fusobacterium nucleatum) and against Fusobacterium spp. (KUB No. 6724 Fusobacterium nucleatum) was not above 0.12 µg/mL throughout.

In the assay on Citrobacter freundii, `CC(C)(O/N=C(\C(=O)N[C@@H]1C(=O)N2C(C(=O)[O-])=C(C[n+]3ccccc3)CS[C@H]12)c1csc(N)n1)C(=O)O` [CAZ, ceftazidime] displayed an MBC of more than 128 µg/mL and an MIC of more than 128 µg/mL.

colistin: in assay [1], the MIC50 came out at 0.25 and the MIC90 was 2.
